Reference: patent US8513248B2, “5,6,7,8-tetrahydroimidazo[1,2-A]pyrazine derivatives as P2X7 modulators” (Glaxo Group Limited, priority 2009, dated 2013)
Counter-ions that a name gives are not always drawn.

Legend:
[1] = biological target: T1, human recombinant P2X7 receptors (Homo sapiens, UniProt Q99572); experiment: Ethidium Accumulation Assay 2; format: cell-based; details: HEK293 cells stably expressing human recombinant P2X7; ATP solution with ethidium bromide; 16 min incubation; read-out: Assay 2 (antagonist pIC50 for blocking ATP responses, ethidium accumulation) (converted)
T1 construct: expressed in transfected cells
T1 sequence (Q99572 1-595): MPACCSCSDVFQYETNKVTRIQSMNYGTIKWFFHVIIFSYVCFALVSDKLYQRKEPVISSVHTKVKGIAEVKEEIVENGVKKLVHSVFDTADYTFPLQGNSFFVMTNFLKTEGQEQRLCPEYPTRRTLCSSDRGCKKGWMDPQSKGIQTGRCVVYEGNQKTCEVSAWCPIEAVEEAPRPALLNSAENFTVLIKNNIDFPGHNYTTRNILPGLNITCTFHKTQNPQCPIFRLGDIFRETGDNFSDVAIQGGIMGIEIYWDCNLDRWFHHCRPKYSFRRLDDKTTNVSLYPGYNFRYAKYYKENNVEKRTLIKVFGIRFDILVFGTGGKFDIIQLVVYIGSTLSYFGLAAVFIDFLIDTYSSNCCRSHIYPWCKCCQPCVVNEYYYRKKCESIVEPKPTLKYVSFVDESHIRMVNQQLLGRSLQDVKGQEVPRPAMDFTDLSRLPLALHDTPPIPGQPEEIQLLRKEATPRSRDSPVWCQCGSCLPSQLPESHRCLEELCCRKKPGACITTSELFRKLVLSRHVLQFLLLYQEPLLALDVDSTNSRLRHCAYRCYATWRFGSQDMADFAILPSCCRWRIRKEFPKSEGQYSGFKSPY
Experimental: Human Embryonic Kidney (HEK) 293 cells, stably expressing human recombinant P2X7 receptors, were grown in poly-D-lysine pretreated 96 well plates for 24 hours at 37° C.
The cells were washed with assay buffer (100 μL), before addition of 25 μL of assay buffer and then 25 ul of assay buffer containing the putative P2X7 receptor antagonist compound. The cells were then incubated at room temperature (19-21° C.) for 30 min before addition of ATP solution (50 μM). […] Antagonist pIC50 values for blocking ATP responses were determined using iterative curve fitting techniques.

[2] = biological target: T1, human recombinant P2X7 receptors; experiment: Ethidium Accumulation Assay 1; format: cell-based; details: HEK293 cells stably expressing human recombinant P2X7; 1 mM ATP; ethidium 100 μM; read-out: Assay 1 (antagonist pIC50 for blocking ATP responses, ethidium accumulation) (converted)
Experimental: Studies were performed using NaCl assay buffer of the following composition: 140 mM NaCl, 10 mM HEPES [4-(2-hydroxyethyl)-1-piperazine-1-ethanesulfonic acid], 5 mM N-methyl-D-glucamine, 5.6 mM KCl, 10 mM D-glucose, 0.5 mM CaCl2 (pH 7.4).
Human Embryonic Kidney (HEK) 293 cells, stably expressing human recombinant P2X7 receptors, were grown in poly-D-lysine pretreated 96 well plates for 18-24 hours. […] The cells were washed twice with 350 μl of the assay buffer, before addition of 50 μl of the assay buffer containing the putative P2X7 receptor antagonist compound. (A small amount of dimethyl sulfoxide, for initially dissolving the compound, is optionally used and present in this […] test compound sample.) The cells were then incubated at room temperature (19-21° C.) for 30 min before addition of ATP and ethidium (100 μM final assay concentration). The ATP concentration was chosen to be close to the EC80 for the receptor type and was 1 mM for studies on the human P2X7 receptor. Incubations were continued for 8 or 16 min and were terminated by addition of 25 μl of 1.3M sucrose containing 4 mM of the P2X7 receptor antagonist Reactive Black 5 (Aldrich). […] Antagonist pIC50 values for blocking ATP responses were determined using iterative curve fitting techniques.

SMILES | IC50 [1] [nM] | IC50 [2] [nM]
O=C(c1cccc(C(F)(F)F)c1Cl)N1CCn2ccnc2C1 [Example 1, 7-{[2-Chloro-3-(trifluoromethyl)phenyl]carbonyl}-5,6,7,8-tetrahydroimidazo[1,2-a]pyrazine] | < 100 | < 100
O=C(c1cccc(C(F)(F)F)c1Cl)N1CCn2cc(C(F)(F)F)nc2C1 [Example 2, 7-{[2-Chloro-3-(trifluoromethyl)phenyl]carbonyl}-2-(trifluoromethyl)-5,6,7,8-tetrahydroimidazo[1,2-a]pyrazine] | < 100 | < 100
Cc1cnc2n1CCN(C(=O)c1cccc(C(F)(F)F)c1Cl)C2 [Example 27, 7-{[2-Chloro-3-(trifluoromethyl)phenyl]carbonyl}-3-methyl-5,6,7,8-tetrahydroimidazo[1,2-a]pyrazine hydrochloride] | < 100 | < 100
O=C(c1cccc(C(F)(F)F)c1Cl)N1CCn2c(nc(Br)c2-c2ccc(F)cc2)C1 [Example 34, 2-Bromo-7-{[2-chloro-3-(trifluoromethyl)phenyl]carbonyl}-3-(4-fluorophenyl)-5,6,7,8-tetrahydroimidazo[1,2-a]pyrazine] | – | < 100
O=C(c1cccc(C(F)(F)F)c1Cl)N1CCn2c(nc(C(F)(F)F)c2-c2ccc(F)cc2)C1 [Example 35, 7-{[2-chloro-3-(trifluoromethyl)phenyl]carbonyl}-3-(4-fluorophenyl)-2-(trifluoromethyl)-5,6,7,8-tetrahydroimidazo[1,2-a]pyrazine] | – | < 100
O=C(c1ccc(Cl)cc1Cl)N1CCn2c(nc(C(F)(F)F)c2-c2ccc(F)cc2)C1 [Example 36, 7-[(2,4-dichlorophenyl)carbonyl]-3-(4-fluorophenyl)-2-(trifluoromethyl)-5,6,7,8-tetrahydroimidazo[1,2-a]pyrazine] | – | < 501
O=C(c1ccc(F)cc1Cl)N1CCn2c(-c3cnccn3)cnc2C1 [Example 37, 7-[(2-chloro-4-fluorophenyl)carbonyl]-3-(2-pyrazinyl)-5,6,7,8-tetrahydroimidazo[1,2-a]pyrazine] | – | < 10
O=C(c1cccc(C(F)(F)F)c1Cl)N1CCn2c(-c3cnccn3)cnc2C1 [Example 38, 7-{[2-chloro-3-(trifluoromethyl)phenyl]carbonyl}-3-(2-pyrazinyl)-5,6,7,8-tetrahydroimidazo[1,2-a]pyrazine] | – | < 10
O=C(c1cccc(C(F)(F)F)c1Cl)N1CCn2c(-c3nccs3)cnc2C1 [Example 39, 7-{[2-chloro-3-(trifluoromethyl)phenyl]carbonyl}-3-(1,3-thiazol-2-yl)-5,6,7,8-tetrahydroimidazo[1,2-a]pyrazine] | – | < 10
O=C(c1cccc(C(F)(F)F)c1Cl)N1CCn2c(-c3ncccn3)cnc2C1 [Example 41, 7-{[2-chloro-3-(trifluoromethyl)phenyl]carbonyl}-3-(2-pyrimidinyl)-5,6,7,8-tetrahydroimidazo[1,2-a]pyrazine] | – | < 10
O=C(c1cccc(C(F)(F)F)c1Cl)N1CCn2c(-c3cscn3)cnc2C1 [Example 42, 7-{[2-chloro-3-(trifluoromethyl)phenyl]carbonyl}-3-(1,3-thiazol-4-yl)-5,6,7,8-tetrahydroimidazo[1,2-a]pyrazine] | – | < 10
O=C(c1cccc(C(F)(F)F)c1Cl)N1CCn2c(Cl)cnc2C1 [Example 43, 3-chloro-7-{[2-chloro-3-(trifluoromethyl)phenyl]carbonyl}-5,6,7,8-tetrahydroimidazo[1,2-a]pyrazine] | – | < 100
O=C(c1ccc(Cl)cc1Cl)N1CCn2c(Cl)cnc2C1 [Example 44, 3-chloro-7-[(2,4-dichlorophenyl)carbonyl]-5,6,7,8-tetrahydroimidazo[1,2-a]pyrazine] | – | < 501
O=C(c1cccc(C(F)(F)F)c1Cl)N1CCn2c(nc(Cl)c2Cl)C1 [Example 45, 2,3-dichloro-7-{[2-chloro-3-(trifluoromethyl)phenyl]carbonyl}-5,6,7,8-tetrahydroimidazo[1,2-a]pyrazine] | – | < 10
